The target of experiment [1] is Adenosylhomocysteinase (Homo sapiens, UniProt P23526). The experiment in a line: Inhibition of human SAHH.
Experiment [2] has as its system Plasmodium falciparum. The experiment in a line: (§1) Inhibition of Plasmodium falciparum SAHH.
Experiment [3] is described as follows: as §1.

Calls of active or inactive are those of the source. No cut-off for these calls is given here.

The results in this text go back to ChEMBL document CHEMBL1157435, “Synthesis of 3',4'-epoxynoraristeromycin analogs for molecular labeling probe of S-adenosyl-l-homocysteine hydrolase” (Bioorg Med Chem, 2008).

The Ki is a measure of affinity in units of concentration, obtained from inhibition or displacement.

In experiment [1], `Nc1ncnc2c1ncn2[C@@H]1C[C@H]2O[C@H]2[C@H]1O` had a Ki of 12.4 µM and a Kinact of 0.552 min⁻¹. For the same compound, in experiment [2], the outcome was inactive.
With `Nc1nc(F)nc2c1ncn2[C@@H]1C[C@H]2O[C@H]2[C@H]1O`, the figures for the Ki in experiment [1] and in experiment [3] were 20.3 µM and 14.3 µM, respectively. In addition, the results for the Kinact in experiment [1] and in experiment [2] were 0.133 min⁻¹ and 0.099 min⁻¹, respectively.
`Nc1ncnc2c1ncn2C[C@H](O)[C@H](O)C=O`: in experiment [1], the Kinact is 0.09 min⁻¹.
